Assays:
ADMA in PANC-1 cells = assay: Western blot of global ADMA levels in PANC-1 cells; type: cell-based, human; settings: PANC-1, 72 h, 10 and 20 μM (TR-033 2.5 and 5 μM), vs DMSO
Method: As negative control (Ctrl (−)), PRMT1 enzymes and [^14C-methyl]-SAM were incubated without substrates. Subsequently, samples were separated by SDS-PAGE, blotted, and analyzed by autoradiography. Substrates (H2A, H4 or GST-GAR) and molecular weights (kDa) of the protein marker are indicated. Black lines designate composite images, assembled from the same blots and exposure times. The methylation signals of the substrates were densitometrically quantified, and expressed relative to the DMSO-treated control, as indicated by the numbers below the autoradiographs. Representative results are depicted, with quantification graphs (below the autoradiographs in A and B) summarizing biological replicates. […] Subsequently, GST-GAR was immobilized on glutathione-beads and PRMT1 activity was measured by quantifying the incorporation of ^14C-methyl groups (in cpm) using liquid scintillation counting. […] Cell viability was quantified using the CellTiter-Glo assay. […] Subsequently, whole-cell extracts were prepared and analyzed by Western blot using antibodies against ADMA, ACTIN (ACT), and VINCULIN (VINC), of which the latter two stainings served as loading controls. […] All the ADMA signals per lane were densitometrically quantified, normalized to the signal of the respective loading control and expressed relative to the DMSO-treated control, as indicated by the numbers below the immunostainings. […]

PANC-1 cells = assay: CaspaseGlo 3/7 apoptosis assay, PANC-1; type: cell-based, human; settings: 72 h
Method: (§1) 6 Effect of small-molecule modulators on gemcitabine-induced apoptosis and tumor growth of PDAC cells. […] After 2 h, gemcitabine (GEM) was added at increasing concentrations (10 and 25 nM) or not (−) for another incubation of 72 h. Subsequently, the luminescence-based caspase3/7 assay was performed. The activity of caspase 3/7 in treated cells was normalized to the activity measured in untreated cells (dark gray bar), which was set to 1 (mean SD, n = 6 for PANC-1 and n = 4 for PaTu8988T; *: p ≤ 0.05, **: p ≤ 0.01, ***: p ≤ 0.001, using the student t-test). […] After 24 h, gemcitabine (GEM, 1 μM) was added (+) or not (−) for another incubation of 48 h. Subsequently, the apoptotic cell fraction was quantified in % by flow cytometry using FITC-labeled Annexin V (AV) and propidium iodide (PI) staining (in B: mean ± SD, n = 6 for PANC-1 and n = 5 for PaTu8988T; **: p ≤ 0.01, ***: p ≤ 0.001, ****: p ≤ 0.0001, using the student t-test). […] Viable cells are AV/PI double-negative (AV–/PI–, lower left quadrant, Q4), early apoptotic cells are AV single-positive (AV+/PI– upper left quadrant, Q1), late apoptotic cells are AV/PI double-positive (AV+/PI+, upper right quadrant, Q2), and necrotic cells are PI single-positive (AV–/PI+, lower right quadrant, Q3). The sum of early and late apoptotic cell numbers ([…] in %) is indicated in red. D-G: The workflow of the PDAC xenograft experiments in mice is depicted in D. PANC-1 cells (2 × 10^6 cells/mouse) were subcutaneously (s.c.) injected in the right flank of female athymic nude mice. Small tumor nodules appeared 6 days post-engraftment. […] Tumor volumes were measured every second day using a digital caliper. […] At the end of the 2 weeks, mice were sacrificed and tumors were dissected (F).
(§2) For quantification of apoptosis using the CaspaseGlo 3/7 assay (Promega), PANC-1 and PaTu8988T cells were seeded in triplicates in white 96-well plate (5 × 10^3 cells/well) and cultured in the absence or presence of compounds. After 2 h, as soon as the cells had settled, gemcitabine was added or not, and cells were incubated for another 72 h. Subsequently, the caspase3/7 activity was measured using the luminescence-based CaspaseGLO-3/7 assay (Promega). To this end, the CaspaseGlo reagent was subsequently added to the cells at a 1:1 ratio and incubated at room temperature and under agitation for 30 min protected from light. The luminescence measurements were carried out using a microplate reader (Mithras LB 940, Berthold).

PaTu8988T cells = assay: CaspaseGlo 3/7 apoptosis assay, PaTu8988T; type: cell-based, human; settings: 72 h
Method: as §1, §2

PANC-1 xenografts = assay: PDAC xenograft mouse model, tumor growth; type: in vivo; settings: female athymic nude mice, intraperitoneal, 2 weeks; 150 mg/kg TR-07 daily, 10 mg/kg gemcitabine every second day; n = 5
[1] = tested on: ADMA in PANC-1 xenograft tissues; assay: Immunofluorescence staining of ADMA in xenograft tumor tissue; type: in vivo, mouse; settings: after 2 weeks treatment, compared to PBS or gemcitabine alone
Method: 6 Effect of small-molecule modulators on gemcitabine-induced apoptosis and tumor growth of PDAC cells. […] After 2 h, gemcitabine (GEM) was added at increasing concentrations (10 and 25 nM) or not (−) for another incubation of 72 h. Subsequently, the luminescence-based caspase3/7 assay was performed. The activity of caspase 3/7 in treated cells was normalized to the activity measured in untreated cells (dark gray bar), which was set to 1 (mean SD, n = 6 for PANC-1 and n = 4 for PaTu8988T; *: p ≤ 0.05, **: p ≤ 0.01, ***: p ≤ 0.001, using the student t-test). […] After 24 h, gemcitabine (GEM, 1 μM) was added (+) or not (−) for another incubation of 48 h. Subsequently, the apoptotic cell fraction was quantified in % by flow cytometry using FITC-labeled Annexin V (AV) and propidium iodide (PI) staining (in B: mean ± SD, n = 6 for PANC-1 and n = 5 for PaTu8988T; **: p ≤ 0.01, ***: p ≤ 0.001, ****: p ≤ 0.0001, using the student t-test). […] Tumor volumes were measured every second day using a digital caliper. […]
For antigen retrieval, tissue sections were steam-heated for 35 min in citrate buffer (pH 6.0), cooled down to room temperature, and then washed in PBS. […] Fluorescence images were acquired using the Confocal Laser Scanning microscope Leica SP8i and analyzed with IMARIS 9.9.0 (Bitplane-Oxford Instruments, Abingdon, GB) using the Cell module.

[2] = TR-07 10 μM or gemcitabine 10 and 25 nM
[3] = compound 10 μM, after 2 h gemcitabine 10 and 25 nM

Compound | global arginine methylation (ADMA) in cells (ADMA in PANC-1 cells) | apoptosis, caspase 3/7 activity, single agent (PANC-1 cells; [2]) | gemcitabine-induced apoptosis, caspase 3/7 activity, co-treatment (PANC-1 cells; [3]) | apoptosis, caspase 3/7 activity, single agent (PaTu8988T cells; [2]) | gemcitabine-induced apoptosis, caspase 3/7 activity, co-treatment (PaTu8988T cells; [3]) | tumor growth of PANC-1 xenografts (PANC-1 xenografts) | mean intensity ADMA levels in PANC-1 xenografts (IF staining) [1]
CN(C)Cc1cccc(CN/C=C2\C(=O)NC(=O)c3ccccc32)c1.Cl [TR-07, (Z)-1-[3-({[(1,3-Dioxo-2,3-dihydroisoquinolin-4(1H)-lidene)methyl]amino}methyl)phenyl]-N,N-dimethylmethanaminium chloride] | concentration-dependent increase in global arginine methylation | did not significantly induce apoptosis | further significantly enhanced | did not significantly induce apoptosis | further significantly enhanced | significantly reduced the tumor growth compared to the control mice | elevated mean intensity ADMA levels
CN(C)Cc1cccc(-c2ccc3[nH]c(=O)c4ccccc4c3c2)c1 [TR-033, 2-{3-[(Dimethylamino)methyl]phenyl}phenanthridin-6(5H)-One] | did not produce consistent effects |  |  |  |  |  | 

Reference: PMC13576449, “Small-Molecule Activators of PRMT1: Discovery, SAR Analyses, and Proapoptotic Effects in Pancreatic Cancer Cells” (Journal of Medicinal Chemistry, 2026)
